Measured values: ChEMBL document CHEMBL5365530, “Identification of a Novel, Potent, and Orally Bioavailable Guanidine-Based SHP2 Allosteric Inhibitor from Virtual Screening and Rational Structural Optimization for the Treatment of KRAS Mutant Cancers” (J Med Chem, 2023)

Tests used:
KYSE-520 cell line = experiment: Antiproliferative activity against human KYSE-520 cells assessed as inhibition of cell growth incubated for 72 hrs by CellTiter-LumiII Luminescent assay; format: functional, cell-based; settings: KYSE-520, 72 h
RAW264.7 = experiment: Cytotoxicity against mouse RAW264.7 cells assessed as cell viability at 10 to 30 uM incubated for 72 hrs by CellTiter-LumiII Luminescent assay; format: toxicity, cell-based; settings: raw264.7, 72 h, dose 10-30 µM
MIA PaCa-2 = experiment: Antiproliferative activity against human MIA PaCa-2 cells harboring KRASG12C mutant assessed as inhibition of cell growth incubated for 72 hrs by CellTiter-LumiII Luminescent assay; format: functional, cell-based; settings: MIA PaCa-2, 72 h
[1] = Hepatotoxicity in ICR mouse assessed as increase in plasma AST level at 100 mg/kg, po administered once every 2 days and measured on day 14; format: toxicity, organism-based; settings: in vivo, 336 h, time 14 day
[2] = Hepatotoxicity in ICR mouse assessed as increase in plasma ALP level at 100 mg/kg, po administered once every 2 days and measured on day 14; format: toxicity, organism-based; settings: in vivo, 336 h, time 14 day
[3] = Hepatotoxicity in ICR mouse assessed as increase in plasma ALT level at 100 mg/kg, po administered once every 2 days and measured on day 14; format: toxicity, organism-based; settings: in vivo, 336 h, time 14 day
[4] = biological target: T1, Tyrosine-protein phosphatase non-receptor type 11 (Homo sapiens, UniProt Q06124); experiment: Allosteric Inhibition of H2N-LN(pY)IDLDLV(dPEG8)LST(pY)ASINFQKASINFQK-amide-activated SHP2 (unknown origin) using DiFMUP as substrate pretreated with enzyme for 1 hr followed by substrate addition and measured after 20 mins by fluorescence based analysis
T1 sequence (Q06124 whole entry): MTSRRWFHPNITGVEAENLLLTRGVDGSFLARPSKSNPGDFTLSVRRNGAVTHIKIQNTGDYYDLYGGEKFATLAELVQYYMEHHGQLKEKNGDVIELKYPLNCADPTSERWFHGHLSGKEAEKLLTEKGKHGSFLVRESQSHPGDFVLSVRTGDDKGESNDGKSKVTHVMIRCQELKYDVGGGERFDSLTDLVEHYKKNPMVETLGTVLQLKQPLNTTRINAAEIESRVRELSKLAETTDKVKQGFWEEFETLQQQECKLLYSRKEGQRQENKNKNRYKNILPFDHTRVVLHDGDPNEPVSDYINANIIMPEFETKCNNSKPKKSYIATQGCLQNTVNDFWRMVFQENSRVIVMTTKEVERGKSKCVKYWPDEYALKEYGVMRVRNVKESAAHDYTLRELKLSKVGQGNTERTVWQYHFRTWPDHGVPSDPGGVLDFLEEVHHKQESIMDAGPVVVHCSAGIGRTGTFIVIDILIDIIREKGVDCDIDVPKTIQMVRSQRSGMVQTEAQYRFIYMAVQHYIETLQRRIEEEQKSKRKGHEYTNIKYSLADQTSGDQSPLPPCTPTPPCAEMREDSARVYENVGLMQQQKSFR

| Structure (SMILES) | IC50 [4] [nM] | also measured |
| --- | --- | --- |
| CC1(N)CCN(c2cnc(-c3cccc(Cl)c3Cl)c(N)n2)CC1 |  | IC50 (KYSE-520 cell line): 10800 nM; Activity (RAW264.7): Non-Toxic; IC50 (MIA PaCa-2): 41900 nM; Activity [1]: Toxic; Activity [2]: Toxic; Activity [3]: Toxic |
| N#Cc1ccc(/N=C(\N)N2CCN(c3cnc(Sc4cccnc4C(F)(F)F)c(N)n3)CC2)cc1 | 159 |  |
| N/C(=N\c1cnccn1)N1CCN(c2cnc(-c3cccc(Cl)c3Cl)c(N)n2)CC1 | 396 |  |
| CN(CCN(C)c1cnc(-c2cccc(Cl)c2Cl)c(N)n1)C(=N)N | 6250 |  |
| N=C(N)N1CCN(c2cnc(-c3cccc(Cl)c3Cl)c(N)n2)C(=O)C1 | > 10000 |  |
| N/C(=N\c1ncccn1)N1CCN(c2cnc(-c3cccc(Cl)c3Cl)c(N)n2)CC1 | 715 |  |
| N/C(=N\C(=O)c1ccncc1)N1CCN(c2cnc(-c3cccc(Cl)c3Cl)c(N)n2)CC1 | 4850 |  |
| NC(=O)N1CCN(c2cnc(-c3cccc(Cl)c3Cl)c(N)n2)CC1 | 6360 |  |

Further lines, with some results ahead:

| IC50 [4] [nM] | Structure (SMILES) | also measured |
| --- | --- | --- |
| 72.8 | N#Cc1cc(/N=C(\N)N2CCN(c3cnc(-c4cccc(Cl)c4Cl)c(N)n3)CC2)cs1 |  |
| 52.7 | COc1ccc(/N=C(\N)N2CCN(c3cnc(-c4cccc(Cl)c4Cl)c(N)n3)CC2)cc1 |  |
| 252 | N/C(=N\c1cccs1)N1CCN(c2cnc(-c3cccc(Cl)c3Cl)c(N)n2)CC1 |  |
| 2000 | CN/C(=N\c1ccc(C#N)cc1)N1CCN(c2cnc(-c3cccc(Cl)c3Cl)c(N)n2)CC1 |  |
| 184 | N/C(=N\c1ccccn1)N1CCN(c2cnc(-c3cccc(Cl)c3Cl)c(N)n2)CC1 |  |
| 34.6 | N#Cc1ccc(/N=C(\N)N2CCN(c3cnc(-c4cccc(Cl)c4Cl)c(N)n3)CC2)cc1 |  |
| 137 | N/C(=N\c1ccccc1)N1CCN(c2cnc(-c3cccc(Cl)c3Cl)c(N)n2)CC1 |  |
